Measurements reported in EPA's ToxValDB 9.5 (doi:10.2903/j.efsa.2020.6338).

How the values were obtained:
[1] = system: Bovidae; conditions: subchronic; duration: 42 days; oral; diet; M; no effects
[2] = system: Gallus gallus; conditions: subchronic; duration: 36 days; oral; diet; M; Chicken; no effects
[3] = system: Sus scrofa; conditions: subchronic; duration: 42 days; oral; diet; M/F; Not specified; no effects

Row | SMILES | LEL [1] | LEL [2] | LEL [3]
1 | Cc1csc(C(C)C)n1 [2-Isopropyl-4-methylthiazole] | 15 mg/kg-day | 15 mg/kg-day | 15 mg/kg-day
2 | COc1ccc2ccccc2c1 [2-Methoxynaphthalene] | 12 mg/kg-day | 12 mg/kg-day | 12 mg/kg-day
3 | OCCc1ccccc1 [2-Phenylethanol] | 125 mg/kg-day | 125 mg/kg-day | 125 mg/kg-day
4 | CC(=O)OCCC(C)C [3-Methylbutyl acetate] | 1250 mg/kg-day | 1250 mg/kg-day | 1250 mg/kg-day
5 | CCCCCCC(=O)OCC [Ethyl heptanoate] | 318 mg/kg-day | 318 mg/kg-day | 318 mg/kg-day
6 | C=CC(C)(O)CCC=C(C)C (configuration not stated) [Linalool] | 300 mg/kg-day | 300 mg/kg-day | 300 mg/kg-day
7 | O=C1CCCCCCCCCCCCCCO1 [Pentadecan-15-olide] | 100 mg/kg-day | 100 mg/kg-day | 100 mg/kg-day
8 | CC(C)CC(=O)OCCc1ccccc1 [Phenethyl isovalerate] | 300 mg/kg-day | 300 mg/kg-day | 300 mg/kg-day
9 | CC1CCC(C(C)(C)S)C(=O)C1 (configuration not stated) [p-Mentha-8-thiol-3-one] | 5 mg/kg-day | 5 mg/kg-day | 5 mg/kg-day
